This note sets out measurements from patent US7202265B2, “Indolinone combinatorial libraries and related products and methods for the treatment of disease” (Sugen, Inc., priority 1997, dated 2007).

T1 sequence (P35918 20-1345): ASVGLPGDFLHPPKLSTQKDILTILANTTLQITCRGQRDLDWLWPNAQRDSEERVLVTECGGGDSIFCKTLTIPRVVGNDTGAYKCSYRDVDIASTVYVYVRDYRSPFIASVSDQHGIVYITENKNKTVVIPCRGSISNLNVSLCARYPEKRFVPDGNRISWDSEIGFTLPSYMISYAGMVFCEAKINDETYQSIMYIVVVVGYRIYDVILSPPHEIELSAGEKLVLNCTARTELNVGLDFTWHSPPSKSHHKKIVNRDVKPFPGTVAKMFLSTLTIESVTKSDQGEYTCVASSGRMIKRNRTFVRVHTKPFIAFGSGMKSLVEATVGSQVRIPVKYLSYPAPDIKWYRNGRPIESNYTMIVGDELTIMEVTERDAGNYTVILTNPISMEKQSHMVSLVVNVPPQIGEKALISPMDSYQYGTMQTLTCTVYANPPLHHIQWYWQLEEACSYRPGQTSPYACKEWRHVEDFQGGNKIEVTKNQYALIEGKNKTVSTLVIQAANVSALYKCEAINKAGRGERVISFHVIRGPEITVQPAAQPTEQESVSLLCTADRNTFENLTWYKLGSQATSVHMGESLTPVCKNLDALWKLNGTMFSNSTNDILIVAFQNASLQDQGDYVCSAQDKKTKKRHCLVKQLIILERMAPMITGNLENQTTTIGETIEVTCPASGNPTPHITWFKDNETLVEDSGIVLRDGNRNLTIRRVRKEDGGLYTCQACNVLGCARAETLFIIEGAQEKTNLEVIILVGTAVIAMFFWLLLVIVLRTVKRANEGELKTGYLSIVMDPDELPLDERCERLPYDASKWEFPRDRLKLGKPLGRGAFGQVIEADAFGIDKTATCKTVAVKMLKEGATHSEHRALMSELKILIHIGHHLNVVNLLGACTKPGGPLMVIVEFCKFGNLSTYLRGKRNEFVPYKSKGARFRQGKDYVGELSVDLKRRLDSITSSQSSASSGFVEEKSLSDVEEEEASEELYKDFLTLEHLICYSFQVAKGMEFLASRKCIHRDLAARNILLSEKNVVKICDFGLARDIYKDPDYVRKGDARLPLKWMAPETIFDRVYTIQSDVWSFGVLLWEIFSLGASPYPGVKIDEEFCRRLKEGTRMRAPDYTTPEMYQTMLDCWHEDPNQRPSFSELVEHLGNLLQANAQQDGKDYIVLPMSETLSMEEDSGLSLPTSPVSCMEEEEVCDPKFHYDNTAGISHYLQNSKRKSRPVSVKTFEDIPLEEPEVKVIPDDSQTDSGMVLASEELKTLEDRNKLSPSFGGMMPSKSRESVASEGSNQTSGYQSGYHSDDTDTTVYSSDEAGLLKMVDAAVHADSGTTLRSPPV

One experiment concerns the target T1, FLK-1 receptor (Mus musculus, UniProt P35918).
T1 construct: expressed in transfected cells; host or cells: NIH3T3 C7#3 (FLK-1/NIH3T3)
Kind of experiment: FLK-1 ELISA (catalytic activity of the FLK-1 receptor in FLK-1/NIH3T3 cells). It is filed as cell-based. Particulars: Table 2; read-out: FLK Kinase IC50.
Method: An enzyme linked immunosorbent assay (ELISA) was conducted to measure the catalytic activity of the FLK-1 receptor and more specifically, the inhibition or activation of indolinone compounds on the catalytic activity of the FLK-1 receptor. Specifically, the following assay was conducted to measure catalytic activity of the FLK-1 receptor in FLK-1/NIH3T3 cells.
An ELISA assay was conducted to measure the kinase activity of the FLK-1 receptor and more specifically, the inhibition or activation of protein tyrosine kinase activity on the FLK-1 receptor. Specifically, the following assay was conducted to measure kinase activity of the FLK-1 receptor in FLK-1/NIH3T3 cells.
Materials. The following reagents and supplies were used: • a. […] PBS (Gibco Catalog No. 450–1300EB); • d. […] EDTA (0.5 M (pH 7.0) as a 100× stock); • h. Sodium ortho vanadate (0.5 M as a 100× stock); • i. Sodium pyro phosphate (0.2M as a 100× stock); • j. […] NIH3T3 C7#3 Cells (FLK-1 expressing cells); • l. […] FBS, Gibco (catalog no. 16000-028); • n.
Protocol. The following protocol was used for conducting the assay:
1. Coat Corning 96-well elisa plates with 1.0 μg per well Cappel Anti-rabbit IgG antibody in 0.1M Na2CO3 pH 9.6. Bring final volume to 150 μl per well. Coat plates overnight at 4° C. Plates can be kept up to two weeks when stored at 4° C.
2. Grow cells in Growth media(DMEM, supplemental with 2.0 mM L-Glutamine, 10% FBS) in suitable culture dishes until confluent at 37° C., 5% CO2.
4. Grow cells at least one day at 37° C., 5% CO2.
5. Wash cells with D-PBS 1×.
6. Add 200 μl/well of starvation media (DMEM, 2.0 mM 1-Glutamine, 0.1% FBS). Incubate overnight at 37° C., 5% CO2.
7. Dilute Compounds/Extracts 1:20 in polypropylene 96 well plates using starvation media. Dilute dimethylsulfoxide 1:20 for use in control wells.
8. Remove starvation media from 96 well cell culture plates and add 162 μl of fresh starvation media to each well.
9. Add 18 μl of 1:20 diluted Compound/Extract dilution (from step 7) to each well plus the 1:20 dimethylsulfoxide dilution to the control wells (+/−VEGF), for a final dilution of 1:200 after cell stimulation. Final dimethylsulfoxide is 0.5%. Incubate the plate at 37° C., 5% CO2 for two hours.
10. Remove unbound antibody from ELISA plates by inverting plate to remove liquid. […] Pat the plate on a paper towel to remove excess liquid and bubbles.
Incubate plate thirty minutes while shaking on a microtiter plate shaker.
Wash plate 3 times as described in step 10.
Incubate plate for. thirty minutes while shaking.
Consider `COc1ccc2[nH]cc(/C=C3\C(=O)Nc4ccccc43)c2c1`, for which the IC50 was 13 µM.
On the same count and under the same terms, under `Cn1cc(/C=C2\C(=O)Nc3ccccc32)c2ccccc21` stands 0.7 µM.

The same experiment, now with this note: Table 6; read-out: FLK Kinase IC50.
Turning to `O=C1Nc2ccc(Cl)cc2/C1=C/c1cc2c([nH]1)CCCC2`, the IC50 came out at 5 µM.
With `Nc1ccc2c(c1)/C(=C/c1cc3c([nH]1)CCCC3)C(=O)N2`, the IC50 turned out to be 1.2 µM.
On the same count and under the same terms, under `O=C1Nc2ccccc2/C1=C/c1cc2c([nH]1)CCCC2` stands 1.4 µM.

Still in this experiment, the particulars now being: Table 7; read-out: Activity 1C50 FLK Kinase.
Turning to `O=C1Nc2ccccc2/C1=C\c1cc2c([nH]1)CCCC2` [compound 0128], the IC50 was 1.7 µM.
The same measure, in the same setting: under `O=C1Nc2ccc(Br)cc2/C1=C\c1cc2c([nH]1)CCCC2` [compound 0129] stands 19.6 µM.

Staying with this experiment, now noted: Table 8.
Turning to `CCc1cc(CC)c(/C=C2\C(=O)Nc3ccc(C(=O)O)cc32)[nH]1`, the “Activity EC200” value is on record as “ActivityEC200 = 2.8 μm”.
Same read-out and setting: under `Cc1ccc(/C=C2\C(=O)Nc3ccc(CCC(=O)O)cc32)s1` stands “ActivityEC200 > 100 μm”; under `CC(C)c1cc(C(C)C)c(/C=C2\C(=O)Nc3ccc(C(=O)O)cc32)[nH]1`, “ActivityEC200 = 10 μm”.

The same experiment, now with this note: Table 10; read-out: FLK Kinase IC50.
Take `CCc1c(C)[nH]c(/C=C2\C(=O)Nc3ccc(N)cc32)c1C`: the IC50 was 1.5 µM.
Same read-out and setting: under `Cc1cc(C)n(C)c1/C=C1\C(=O)Nc2ccc(N)cc21` stands 1.1 µM; under `COc1cc2c(cc1OC)/C(=C/c1coc3ccc(C(C)C)cc3c1=O)C(=O)N2`, 17.1 µM; under `Cc1cc(Cl)cc2c1NC(=O)/C2=C\c1cc(O)c(O)c(Br)c1`, 18.5 µM.
Still for that read-out and setting: under `O=C1Nc2ccc(Cl)cc2/C1=C/c1c[nH]cn1` stands 5.6 µM; under `COC(=O)CCc1c[nH]c(/C=C2\C(=O)Nc3ccc(Cl)cc32)c1C`, 5.6 µM; under `O=C1Nc2ccccc2/C1=C/c1ccc(N2CCCC2)cc1`, 9.9 µM.
Still for that read-out and setting: under `Cc1cc(C)c2c(c1)NC(=O)/C2=C\c1c[nH]cn1` stands 4.6 µM; under `COc1c(O)ccc(/C=C2\C(=O)Nc3ccc(Cl)cc32)c1[N+](=O)[O-]`, 10.7 µM.
In the case of `CCc1cc(CC)c(/C=C2\C(=O)Nc3cccc(C)c32)[nH]1`, the IC50 turned out to be 17.3 µM.
Same read-out and setting: the same measure for `O=C1Nc2c(Br)cc(Cl)cc2/C1=C/c1cc(O)c(O)c(Br)c1`: 8.8 µM.

The test system of the next experiment is human MET. Description: MET biochemical kinase assay. Set-up: concentration or dose not given beside the values.
Settings: not given
Summed up: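 MET captured from cell lysates onto plates coated with goat anti-rabbit Fc plus rabbit polyclonal anti-MET cytoplasmic-domain antibody; after washing, compounds added with kinase buffer containing ATP and divalent metal ions. Receptor tyrosine phosphorylation detected by HRP-conjugated anti-phosphotyrosine antibody, TMB colorimetric read-out.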
`CCOC(=O)CCc1c(C(=O)OCC)[nH]c(C=C2C(=O)Nc3ccc(Br)c(C)c32)c1CC(=O)OCC` [10718/C05]: the “Met Kinase % Inhibition” value was 8.7%.
Regarding `CC(=O)n1cc(C=C2C(=O)Nc3ccc(S(=O)(=O)Nc4ccc(C(F)(F)F)cc4)cc32)c2ccccc21` [10730/E05], the “Met Kinase % Inhibition” value was 49.0%.
Same read-out and setting: the same measure for `Cc1ccc(C=C2C(=O)Nc3ccc(S(=O)(=O)Nc4ccc(C(F)(F)F)cc4)cc32)s1` [10717/E07]: 41.0%; for `O=C1Nc2ccc(CCCl)cc2C1=Cc1csc([N+](=O)[O-])c1` [10722/G09]: 51.0%; for `CNS(=O)(=O)c1ccc2c(c1)C(=Cc1ccccc1O)C(=O)N2` [10720/D05]: 9.8%.
Same read-out and setting: the same measure for `COc1ccc(Br)c(C=C2C(=O)Nc3c(Br)cc(Br)cc32)c1O` [10725/A03]: 68.0%.
Same read-out and setting: under `CC(C)(C)c1cc(C=C2C(=O)Nc3ccc(I)cc32)cc(Cl)c1O` [10722/B08] stands 72.0%; under `COC(=O)c1[nH]c(C)c(C=C2C(=O)Nc3ccc(CCCl)cc32)c1C(=O)OC` [10718/G07], 52.0%; under `CCOc1ccccc1C=C1C(=O)Nc2ccc(S(=O)(=O)Nc3ccc(C(F)(F)F)cc3)cc21` [10717/E02], 24.0%.
On to `Cc1c(Br)ccc2c1C(=Cc1cccc([N+](=O)[O-])c1)C(=O)N2` [10719/C10], for which the “Met Kinase % Inhibition” value was 7.9%.
Turning to `CCc1ccc(C=C2C(=O)Nc3ccc(S(=O)(=O)Nc4ccc(C(F)(F)F)cc4)cc32)o1` [10724/E10], the “Met Kinase % Inhibition” value came out at 84.0%.
The same measure, in the same setting: the same measure for `O=C1Nc2ccc(S(=O)(=O)N3CCOCC3)cc2C1=Cc1ccc(O)c(O)c1O` [10723/F02]: 99.0%; for `O=C1Nc2ccc(CCCl)cc2C1=Cc1cc2ccccc2o1` [10724/G07]: 2.3%.
Same read-out and setting: under `Cc1csc2sc(C=C3C(=O)Nc4ccc(I)cc43)c(C)c12` [10724/B11] stands 43.0%; under `O=C1Nc2ccc(CCCl)cc2C1=Cc1ccccc1O` [10720/G05], 37.0%; under `Cc1cc(C=C2C(=O)Nc3ccc(CCCl)cc32)cc(C)c1OCc1ccccc1` [10733/G07], 8.5%.
Still for that read-out and setting: the same measure for `COc1cc(OC)c(C=C2C(=O)Nc3ccc(S(=O)(=O)N4CCOCC4)cc32)c(OC)c1` [10719/F06]: −22.0%.
With `CNS(=O)(=O)c1ccc2c(c1)C(=Cc1cc3ccccc3nc1Cl)C(=O)N2` [10730/D08], the “Met Kinase % Inhibition” value is −13.6%.
The same measure, in the same setting: under `CCCCN(CCCC)c1ccc(C=C2C(=O)Nc3ccc(CCCl)cc32)cc1` [10722/G10] stands 27.0%; under `COc1cccc(C=C2C(=O)Nc3ccc(S(=O)(=O)N4CCOCC4)cc32)c1OC` [10727/F11], −3.0%.
On to `O=C1Nc2ccc(CCCl)cc2C1=Cc1ccccc1Sc1ccc(Cl)cc1` [10727/G05], for which the “Met Kinase % Inhibition” value stood at 7.1%.
On the same count and under the same terms, the same measure for `O=C1Nc2ccc(I)cc2C1=Cc1cc2c(cc1Cl)OCO2` [10727/B06]: 91.0%; for `COc1cc(OC)c(C=C2C(=O)Nc3ccc(CCCl)cc32)c(OC)c1` [10719/G06]: −18.1%; for `O=C1Nc2c(Br)cc(Br)cc2C1=Cc1ccc(F)cc1Cl` [10719/A09]: 47.0%.
The same measure, in the same setting: under `COc1ccc(C=C2C(=O)Nc3ccc(S(=O)(=O)Nc4ccc(C(F)(F)F)cc4)cc32)cc1C(C)(C)C` [10732/E05] stands 2.2%.
Same read-out and setting: under `O=C1Nc2ccc(S(=O)(=O)Nc3ccc(C(F)(F)F)cc3)cc2C1=Cc1cc([N+](=O)[O-])cc(CCl)c1O` [10721/E06] stands 81.0%; under `CNS(=O)(=O)c1ccc2c(c1)C(=Cc1cc(C)c(OC)c(C)c1)C(=O)N2` [10733/D06], −19.4%.
As for `Cc1cc(C)c(C=C2C(=O)Nc3ccc(CCCl)cc32)[nH]1` [10721/G08], the “Met Kinase % Inhibition” value is recorded as −2.4%.
Still for that read-out and setting: the same measure for `CCOC(=O)c1c(C)[nH]c(C=C2C(=O)Nc3ccc(S(=O)(=O)NC)cc32)c1C` [10718/D02]: 32.0%; for `O=C1Nc2ccc(S(=O)(=O)N3CCOCC3)cc2C1=Cc1ccc(Br)cc1` [10717/F08]: 64.0%; for `O=C1Nc2ccc(S(=O)(=O)N3CCOCC3)cc2C1=Cc1c[nH]c2ccccc12` [10717/F06]: 49.0%.
Still for that read-out and setting: the same measure for `CC(C)(C)c1cc(C=C2C(=O)Nc3c(Br)cc(Br)cc32)ccc1O` [10721/A09]: 23.0%; for `O=C1Nc2ccc(I)cc2C1=Cc1ccc(C(F)(F)F)cc1` [10722/B11]: 83.0%.
The same measure, in the same setting: the same measure for `O=C1Nc2ccc(I)cc2C1=Cc1ccc(O)c([N+](=O)[O-])c1` [10724/B03]: 51.0%; for `O=C1Nc2ccc(CCCl)cc2C1=Cc1ccc([N+](=O)[O-])o1` [10718/G11]: 3.0%.
In the case of `CNS(=O)(=O)c1ccc2c(c1)C(=Cc1cc(C(C)C)c(O)c(C(C)C)c1)C(=O)N2` [10724/D06], the “Met Kinase % Inhibition” value worked out at 23.0%.
On to `CNS(=O)(=O)c1ccc2c(c1)C(=Cc1cc([N+](=O)[O-])cc(CCl)c1O)C(=O)N2` [10721/D06], for which the “Met Kinase % Inhibition” value stood at 9.0%.
Still for that read-out and setting: the same measure for `O=C1Nc2ccc(CCCl)cc2C1=Cc1ccc([N+](=O)[O-])c(O)c1` [10724/G04]: 71.0%.
The same measure, in the same setting: under `O=C1Nc2ccc(CCCl)cc2C1=Cc1ccc(O)cc1` [10719/G07] stands 24.0%.
Same read-out and setting: under `Cc1c(Br)ccc2c1C(=Cc1sccc1Br)C(=O)N2` [10725/C02] stands 6.3%; under `Cc1ccc(C=C2C(=O)Nc3ccc(CCCl)cc32)s1` [10717/G07], 7.5%; under `N#Cc1ccc(C=C2C(=O)Nc3ccc(S(=O)(=O)N4CCOCC4)cc32)cc1` [10727/F09], 9.3%.
Regarding `CC(C)(C)c1cc(C=C2C(=O)Nc3ccc(S(=O)(=O)Nc4ccc(C(F)(F)F)cc4)cc32)cc(Cl)c1OCc1ccccc1` [10732/E10], the “Met Kinase % Inhibition” value came to 1.6%.
In the case of `O=C1Nc2ccc(S(=O)(=O)Nc3ccc(C(F)(F)F)cc3)cc2C1=Cc1ccc(C(=O)O)cc1` [10722/E05], the “Met Kinase % Inhibition” value worked out at 73.0%.
The same measure, in the same setting: under `COc1cc(OC)c(OC)cc1C=C1C(=O)Nc2ccc(S(=O)(=O)N3CCOCC3)cc21` [10730/F03] stands −0.6%; under `CNS(=O)(=O)c1ccc2c(c1)C(=Cc1ccc(O)c(C)c1O)C(=O)N2` [10718/D09], 9.9%; under `O=C1Nc2ccc(CCCl)cc2C1=Cc1ccc(F)cc1Cl` [10719/G09], 1.3%.
The same measure, in the same setting: under `CNS(=O)(=O)c1ccc2c(c1)C(=Cc1[nH]c(Cl)c(CC(=O)OC)c1C(=O)OC)C(=O)N2` [10725/D09] stands 28.0%.
On the same count and under the same terms, the same measure for `COc1ccc(C=C2C(=O)Nc3ccc(S(=O)(=O)N4CCOCC4)cc32)c(OC)c1` [10719/F04]: 3.3%; for `CC(C)(C)c1cc(C=C2C(=O)Nc3ccc(I)cc32)cc(C(C)(C)C)c1O` [10721/B11]: 6.7%; for `O=C1Nc2ccc(S(=O)(=O)N3CCOCC3)cc2C1=Cc1cc(O)c(O)c(Br)c1` [10723/F04]: 94.0%.
With `O=C1Nc2ccc(CCCl)cc2C1=Cc1cc2c3c(c1O)CCCN3CCC2` [10724/G05], the “Met Kinase % Inhibition” value was determined as 61.0%.
